According to the supplement of paper PMC10331698:
± gives the standard deviation of the averaged measurements.

Legend:
Assay in all cases: level (log10 ratio to DMSO vehicle control); higher = higher biomarker level / cell amount than vehicle control
Details in all cases: in DMSO
[1] = compound: FC(F)(F)C(F)(F)C(F)(F)C(F)(F)C(F)(F)C(F)(F)CC1CO1 [3-(Perfluorohexyl)-1,2-epoxypropane]
Description: (§1)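 BioMAP Diversity Plus panel of 12 human primary cell co-culture systems (3C, 4H, LPS, SAg, BT, BF4T, BE3C, CASM3C, HDF3CGF, KF3CT, MyoF, Mphg). Compounds were added 1 h before stimulation and left for 24 h (MyoF 48 h; BT 72 h for soluble read-outs or 6 d for IgG). Biomarkers were read by ELISA, cytotoxicity by SRB, PBMC viability and proliferation by Alamar Blue. Each well value was divided by the mean of 8 DMSO control wells on the same plate and log10 transformed; duplicate blinded samples were tested at 4 concentrations.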

[2] = compound: C=C(C)C(=O)OCCC(F)(F)C(F)(F)C(F)(F)C(F)(F)C(F)(F)C(F)(F)F [6:2 Fluorotelomer methacrylate]
Description: as §1

[3] = compound: O=S(=O)(O)C(F)(F)C(F)(F)C(F)(F)C(F)(F)C(F)(F)C(F)(F)C(F)(F)C(F)(F)C(F)(F)C(F)(F)F [Sodium perfluorodecanesulfonate]
Description: as §1

[4] = compound: NS(=O)(=O)C(F)(F)C(F)(F)C(F)(F)C(F)(F)C(F)(F)C(F)(F)F [Perfluorohexanesulfonamide]
Description: as §1

[5] = compound: O=S(=O)(Cl)C(F)(F)C(F)(F)C(F)(F)C(F)(F)C(F)(F)C(F)(F)C(F)(F)C(F)(F)F [Perfluoro-1-octanesulfonyl chloride]
Description: as §1

[6] = compound: FC(F)(F)C(F)(F)CNCC(F)(F)C(F)(F)F [Bis(1H,1H-perfluoropropyl)amine]
Description: as §1

| Test System | level (log10) ([1]; 6700 nM) | level (log10) ([1]; 20000 nM) | level (log10) ([1]; 60000 nM) | level (log10) ([2]; 6700 nM) | level (log10) ([2]; 20000 nM) | level (log10) ([2]; 60000 nM) | level (log10) ([3]; 1500 nM) | level (log10) ([3]; 4400 nM) | level (log10) ([3]; 13000 nM) | level (log10) ([3]; 40000 nM) | level (log10) ([4]; 6700 nM) | level (log10) ([4]; 20000 nM) | level (log10) ([4]; 60000 nM) | level (log10) ([5]; 6700 nM) | level (log10) ([5]; 20000 nM) | level (log10) ([5]; 60000 nM) | level (log10) ([6]; 6700 nM) | level (log10) ([6]; 20000 nM) | level (log10) ([6]; 60000 nM) |
| --- | --- | --- | --- | --- | --- | --- | --- | --- | --- | --- | --- | --- | --- | --- | --- | --- | --- | --- | --- |
| lMphg:CD40 | -0.029 ± 0.0071 | -0.0195 ± 0.005 | -0.005 ± 0.0028 | -0.0125 ± 0.016 | 0.0065 ± 0.023 | 0.0235 ± 0.005 | -0.0305 ± 0.0078 | -0.0285 ± 0.016 | -0.0455 ± 0.012 | -0.104 ± 0.018 | -0.02 ± 0.021 | -0.043 ± 0.031 | -0.146 ± 0.021 | -0.0165 ± 0.019 | -0.01 | -0.0065 ± 0.0035 | 0.006 ± 0.0057 | 0.006 ± 0.0028 | -0.0065 ± 0.0092 |
| KF3CT:TIMP-2 | -0.0095 ± 0.0064 | -0.014 ± 0.013 | 0.003 ± 0.041 | -0.0445 ± 0.0064 | 0.008 ± 0.013 | 0.022 ± 0.038 | -0.0205 ± 0.056 | -0.015 | 0.044 ± 0.02 | 0.005 ± 0.034 | -0.01 ± 0.02 | -0.0115 ± 0.0064 | 0.008 ± 0.0057 | -0.031 ± 0.0071 | -0.0235 ± 0.018 | -0.017 ± 0.051 | 0.001 ± 0.017 | -0.024 ± 0.014 | 0.016 ± 0.054 |
| lMphg:CD62E/E-Selectin | -0.0155 ± 0.00071 | 0.0055 ± 0.016 | -0.0045 ± 0.061 | -0.0005 ± 0.015 | -0.003 ± 0.048 | -0.0135 ± 0.011 | -0.011 ± 0.0014 | -0.0265 ± 0.028 | 0.0135 ± 0.018 | 0.0205 ± 0.021 | -0.02 ± 0.031 | -0.061 ± 0.0014 | -0.191 ± 0.013 | -0.0085 ± 0.0035 | -0.0165 ± 0.037 | 0.073 ± 0.014 | 0.0005 ± 0.0035 | -0.0185 ± 0.0078 | 0.002 ± 0.02 |
| HDF3CGF:CCL2/MCP-1 | -0.0165 ± 0.0021 | -0.0045 ± 0.019 | 0.0055 ± 0.03 | -0.0445 ± 0.0092 | -0.0295 ± 0.005 | -0.048 ± 0.0028 | -0.0105 ± 0.05 | -0.018 ± 0.035 | 0.0415 ± 0.025 | 0.112 ± 0.0099 | 0.0185 ± 0.016 | 0.047 ± 0.018 | 0.091 ± 0.014 | -0.026 ± 0.038 | -0.0505 ± 0.021 | -0.0235 ± 0.028 | -0.032 ± 0.023 | -0.021 ± 0.011 | 0.014 ± 0.031 |
| lMphg:CCL3/MIP-1alpha | -0.0345 ± 0.035 | -0.029 ± 0.034 | -0.009 ± 0.021 | 0.0005 ± 0.066 | -0.0185 ± 0.061 | 0.003 ± 0.04 | -0.008 ± 0.025 | 0.0015 ± 0.012 | 0.0195 ± 0.047 | 0.0425 ± 0.0035 | -0.0025 ± 0.00071 | -0.034 ± 0.044 | -0.0145 ± 0.0092 | 0.038 ± 0.03 | 0.004 ± 0.041 | 0.025 ± 0.018 | 0.039 ± 0.016 | 0.002 ± 0.014 | -0.009 ± 0.0085 |
